Data reported in PubChem BioAssay (NCI).
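Cells were grown in 96-well plates and exposed to each compound for 48 hours at five concentrations; endpoints were interpolated linearly between bracketing concentrations, or set to the highest concentration if not reached. GI50 is the concentration that inhibits growth by half. TGI: total growth inhibition.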

What was measured:
Test in all cases: NCI anticancer screen, dose series, 48 h
[1] = tested on: PC-3 prostate
[2] = tested on: MOLT-4 leukemia
[3] = tested on: SK-MEL-2 melanoma
[4] = tested on: NCI-H522 lung
[5] = tested on: BT-549 breast
[6] = tested on: A498 renal
[7] = tested on: OVCAR-5 ovarian
[8] = tested on: RPMI-8226 leukemia
[9] = tested on: A549 NSCLC
[10] = tested on: NCI-H226 lung
[11] = tested on: CAKI-1 renal
[12] = tested on: OVCAR-3 ovarian
[13] = tested on: COLO 205 colon
[14] = tested on: SF-295 CNS
[15] = tested on: OVCAR-8 ovarian
[16] = tested on: HT29 colon
[17] = tested on: UACC-62 melanoma
[18] = tested on: HS 578T breast
[19] = tested on: KM12 colon
[20] = tested on: 786-0 renal
[21] = tested on: SR leukemia
[22] = tested on: UO-31 renal
[23] = tested on: NCI/ADR-RES ovarian
[24] = tested on: HCC-2998 colon
[25] = tested on: SF-539 CNS
[26] = tested on: OVCAR-4 ovarian
[27] = tested on: SNB-75 CNS
[28] = tested on: EKVX NSCLC
[29] = tested on: MCF7 breast
[30] = tested on: NCI-H460 lung
[31] = tested on: DU-145 prostate
[32] = tested on: SW-620 colon
[33] = tested on: MALME-3M melanoma
[34] = tested on: T-47D breast
[35] = tested on: SN12C renal
[36] = tested on: HCT-116 colon
[37] = tested on: M14 melanoma
[38] = tested on: IGROV1 ovarian
[39] = tested on: HL-60(TB) leukemia
[40] = tested on: UACC-257 melanoma
[41] = tested on: RXF 393 renal
[42] = tested on: SK-MEL-28 melanoma
[43] = tested on: CCRF-CEM leukemia
[44] = tested on: HOP-62 NSCLC
[45] = tested on: K-562 leukemia
[46] = tested on: SK-MEL-5 melanoma
[47] = tested on: SNB-19 CNS
[48] = tested on: NCI-H23 lung
[49] = tested on: HOP-92 NSCLC
[50] = tested on: TK-10 renal
[51] = tested on: U251 CNS
[52] = tested on: MDA-MB-231 breast
[53] = tested on: SF-268 CNS
[54] = tested on: LOX IMVI melanoma
[55] = tested on: SK-OV-3 ovarian
[56] = tested on: MDA-MB-435
[57] = tested on: HCT-15 colon
[58] = tested on: ACHN renal

SMILES: Nc1cccc(-c2nc3sccn3c2-c2ccnc(NCCCNS(=O)(=O)c3ccc(C(F)(F)F)cc3)n2)c1
- GI50 [1]: 2.41 µM
- TGI [1]: 11.9 µM
- GI50 [2]: 2.8 µM
- TGI [2]: 10.4 µM
- GI50 [3]: 4.66 µM
- TGI [3]: 23.4 µM
- GI50 [4]: 3.35 µM
- TGI [4]: 18.2 µM
- GI50 [5]: 2.95 µM
- TGI [5]: 13.1 µM
- GI50 [6]: 3.35 µM
- TGI [6]: 49.5 µM
- GI50 [7]: 13.7 µM
- TGI [7]: 95.1 µM
- GI50 [8]: 2.45 µM
- TGI [8]: 6.54 µM
- GI50 [9]: 4.1 µM
- TGI [9]: 87.4 µM
- GI50 [10]: 3.14 µM
- TGI [10]: 16.5 µM
- GI50 [11]: 3.25 µM
- TGI [11]: 72.1 µM
- GI50 [12]: 3.87 µM
- TGI [12]: 23.4 µM
- GI50 [13]: 3.32 µM
- TGI [13]: 13.1 µM
- GI50 [14]: 3.08 µM
- TGI [14]: 10.1 µM
- GI50 [15]: 3.49 µM
- TGI [15]: 44.9 µM
- GI50 [16]: 2.85 µM
- TGI [16]: 13.7 µM
- GI50 [17]: 2.68 µM
- TGI [17]: 9.71 µM
- GI50 [18]: 4.05 µM
- TGI [18]: 61.6 µM
- GI50 [19]: 3.6 µM
- TGI [19]: 13.8 µM
- GI50 [20]: 5.74 µM
- TGI [20]: > 100 µM
- GI50 [21]: 3.84 µM
- TGI [21]: 43.9 µM
- GI50 [22]: 3.2 µM
- TGI [22]: 27.5 µM
- GI50 [23]: 3.36 µM
- TGI [23]: 56.9 µM
- GI50 [24]: 5.29 µM
- TGI [24]: 92 µM
- GI50 [25]: 6.66 µM
- TGI [25]: 29.6 µM
- GI50 [26]: 3.27 µM
- TGI [26]: 22.8 µM
- GI50 [27]: 1.83 µM
- TGI [27]: 23.1 µM
- GI50 [28]: 6.09 µM
- TGI [28]: 86.1 µM
- GI50 [29]: 4.04 µM
- TGI [29]: 18.5 µM
- GI50 [30]: 4.58 µM
- TGI [30]: 58.6 µM
- GI50 [31]: 4.26 µM
- TGI [31]: 35.6 µM
- GI50 [32]: 8 µM
- TGI [32]: > 100 µM
- GI50 [33]: 3.94 µM
- TGI [33]: 18 µM
- GI50 [34]: 1.37 µM
- TGI [34]: 5.18 µM
- GI50 [35]: 4.36 µM
- TGI [35]: > 100 µM
- GI50 [36]: 3.55 µM
- TGI [36]: 30.5 µM
- GI50 [37]: 3.89 µM
- TGI [37]: 15.3 µM
- GI50 [38]: 3.75 µM
- TGI [38]: 23.4 µM
- GI50 [39]: 3.28 µM
- TGI [39]: 11.8 µM
- GI50 [40]: 5.27 µM
- TGI [40]: 50.6 µM
- GI50 [41]: 6.29 µM
- TGI [41]: > 100 µM
- GI50 [42]: 5.07 µM
- TGI [42]: 26.7 µM
- GI50 [43]: 3.06 µM
- TGI [43]: 14.4 µM
- GI50 [44]: 5.16 µM
- TGI [44]: 24.3 µM
- GI50 [45]: 2.77 µM
- TGI [45]: > 100 µM
- GI50 [46]: 2.2 µM
- TGI [46]: 5.2 µM
- GI50 [47]: 8.33 µM
- TGI [47]: > 100 µM
- GI50 [48]: 5.07 µM
- TGI [48]: 40.9 µM
- GI50 [49]: 11.4 µM
- TGI [49]: 83.5 µM
- GI50 [50]: 11.1 µM
- TGI [50]: > 100 µM
- GI50 [51]: 5.87 µM
- TGI [51]: > 100 µM
- GI50 [52]: 4.85 µM
- TGI [52]: 94 µM
- GI50 [53]: 3.97 µM
- TGI [53]: 49.6 µM
- GI50 [54]: 3.27 µM
- TGI [54]: 16.1 µM
- GI50 [55]: 5.37 µM
- TGI [55]: > 100 µM
- GI50 [56]: 3.21 µM
- TGI [56]: 12.3 µM
- GI50 [57]: 3.33 µM
- TGI [57]: 29.9 µM
- GI50 [58]: 3.34 µM
- TGI [58]: 27.1 µM

SMILES: CCOc1ccc(/C=N/Nc2cc(C)nc3ccc(Cl)cc23)cc1
- GI50 [1]: 1.51 µM
- TGI [1]: 3.14 µM
- GI50 [2]: 1.89 µM
- TGI [2]: 3.85 µM
- GI50 [3]: 1.9 µM
- TGI [3]: 3.43 µM
- GI50 [4]: 1.73 µM
- TGI [4]: 3.29 µM
- GI50 [5]: 1.61 µM
- TGI [5]: 3.15 µM
- GI50 [6]: 1.7 µM
- TGI [6]: 3.45 µM
- GI50 [7]: 1.97 µM
- TGI [7]: 3.5 µM
- GI50 [8]: 1.94 µM
- TGI [8]: 4.32 µM
- GI50 [9]: 2 µM
- TGI [9]: 3.72 µM
- GI50 [10]: 1.85 µM
- TGI [10]: 3.62 µM
- GI50 [11]: 1.78 µM
- TGI [11]: 3.2 µM
- GI50 [12]: 1.93 µM
- TGI [12]: 3.5 µM
- GI50 [13]: 1.91 µM
- TGI [13]: 3.47 µM
- GI50 [14]: 1.76 µM
- TGI [14]: 3.24 µM
- GI50 [15]: 2.34 µM
- TGI [15]: 5.19 µM
- GI50 [16]: 1.9 µM
- TGI [16]: 3.47 µM
- GI50 [17]: 1.79 µM
- TGI [17]: 3.32 µM
- GI50 [18]: 2.15 µM
- TGI [18]: 4.67 µM
- GI50 [19]: 1.89 µM
- TGI [19]: 3.65 µM
- GI50 [20]: 1.57 µM
- TGI [20]: 3.03 µM
- GI50 [21]: 1.12 µM
- TGI [21]: 3.5 µM
- GI50 [22]: 1.63 µM
- TGI [22]: 2.98 µM
- GI50 [23]: 1.9 µM
- TGI [23]: 3.86 µM
- GI50 [24]: 2.19 µM
- TGI [24]: 3.7 µM
- GI50 [25]: 1.97 µM
- TGI [25]: 3.4 µM
- GI50 [26]: 1.79 µM
- TGI [26]: 3.51 µM
- GI50 [27]: 1.86 µM
- TGI [27]: 3.64 µM
- GI50 [28]: 2.18 µM
- TGI [28]: 5.25 µM
- GI50 [29]: 1.67 µM
- TGI [29]: 3.32 µM
- GI50 [30]: 2.06 µM
- TGI [30]: 4.27 µM
- GI50 [31]: 1.82 µM
- TGI [31]: 3.38 µM
- GI50 [32]: 1.97 µM
- TGI [32]: 4.02 µM
- GI50 [33]: 2.02 µM
- TGI [33]: 3.6 µM
- GI50 [34]: 1.94 µM
- TGI [34]: 3.8 µM
- GI50 [35]: 1.82 µM
- TGI [35]: 3.4 µM
- GI50 [37]: 1.53 µM
- TGI [37]: 2.91 µM
- GI50 [38]: 1.93 µM
- TGI [38]: 3.64 µM
- GI50 [39]: 1.86 µM
- TGI [39]: 3.73 µM
- GI50 [40]: 1.81 µM
- TGI [40]: 3.32 µM
- GI50 [41]: 1.66 µM
- TGI [41]: 3.06 µM
- GI50 [42]: 1.78 µM
- TGI [42]: 3.19 µM
- GI50 [43]: 1.47 µM
- TGI [43]: 3.76 µM
- GI50 [44]: 2.31 µM
- TGI [44]: 6.53 µM
- GI50 [45]: 1.36 µM
- TGI [45]: 2.98 µM
- GI50 [46]: 1.72 µM
- TGI [46]: 3.09 µM
- GI50 [47]: 2.37 µM
- TGI [47]: 5.07 µM
- GI50 [48]: 1.76 µM
- TGI [48]: 3.32 µM
- GI50 [49]: 2.1 µM
- TGI [49]: 7.08 µM
- GI50 [50]: 1.91 µM
- TGI [50]: 3.37 µM
- GI50 [51]: 1.91 µM
- TGI [51]: 3.38 µM
- GI50 [52]: 1.83 µM
- TGI [52]: 3.38 µM
- GI50 [53]: 2.05 µM
- TGI [53]: 3.9 µM
- GI50 [54]: 1.73 µM
- TGI [54]: 3.14 µM
- GI50 [55]: 2.86 µM
- TGI [55]: 7.29 µM
- GI50 [56]: 1.75 µM
- TGI [56]: 3.26 µM
- GI50 [57]: 1.55 µM
- TGI [57]: 2.94 µM
- GI50 [58]: 1.78 µM
- TGI [58]: 3.17 µM
